Results on six compounds are retold here after patent publication US7838521B2, “3-oxa-10-aza-phenanthrenes” (NYCOMED GmbH, priority 2004, dated 2010).

The target in the test is T1, PDE4B2 (Homo sapiens, UniProt Q07343).
T1 construct: made in house; host or cells: SF21 insect cells (baculovirus prepared in SF9 cells, pCR-Bac vector)
T1 sequence (Q07343 1-564 isoform Q07343-2): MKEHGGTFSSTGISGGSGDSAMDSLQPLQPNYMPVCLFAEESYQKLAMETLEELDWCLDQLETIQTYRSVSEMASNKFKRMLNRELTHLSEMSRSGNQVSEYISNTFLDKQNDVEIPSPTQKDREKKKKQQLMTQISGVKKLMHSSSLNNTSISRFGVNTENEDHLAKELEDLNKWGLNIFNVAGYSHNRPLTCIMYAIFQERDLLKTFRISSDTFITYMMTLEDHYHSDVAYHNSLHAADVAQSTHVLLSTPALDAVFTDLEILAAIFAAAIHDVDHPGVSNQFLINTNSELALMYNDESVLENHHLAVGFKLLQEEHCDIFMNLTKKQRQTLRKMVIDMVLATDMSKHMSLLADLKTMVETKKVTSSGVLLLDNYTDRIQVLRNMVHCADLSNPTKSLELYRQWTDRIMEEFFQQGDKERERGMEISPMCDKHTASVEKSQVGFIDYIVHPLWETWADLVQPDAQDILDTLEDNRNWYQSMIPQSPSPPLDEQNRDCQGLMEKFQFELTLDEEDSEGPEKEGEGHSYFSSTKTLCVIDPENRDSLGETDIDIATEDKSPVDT
The experiment in a line: Inhibition of PDE4 activity, [3H]cAMP SPA enzyme assay with recombinant PDE4B2. It counts as biochemical. The following applies: recombinant PDE4B2 (GB no. M97515) expressed in SF21 insect cells; 0.5 μM cAMP; 15 min at 37° C.; read-out: PDE4 Inhibition [measured as −logIC50 (mol/l)] (converted). On the procedure: Method for Measuring Inhibition of PDE4 Activities
The PDE4B2 (GB no. M97515) was a gift of Prof. M. Conti (Stanford University, USA). It was amplified from the original plasmid (pCMV5) via PCR with primers Rb9 (5′-[…]-3′) and Rb10 (5′-[…]-3′) and cloned into the pCR-Bac vector (Invitrogen, Groningen, NL).
The recombinant baculovirus was prepared by means of homologous recombination in SF9 insect cells. The expression plasmids were co-transfected with Bac-N-Blue (Invitrogen, Groningen, NL) or BaculoGold DNA (Pharmingen, Hamburg) using a standard protocol (Pharmingen, Hamburg). Wt virus-free recombinant virus supernatants were selected using plaque assay methods. After that, high-titre virus supernatants were prepared by amplifying 3 times. PDE4B2 was expressed in SF21 cells by infecting 2×10^6 cells/ml with an MOI (multiplicity of infection) between 1 and 10 in serum-free SF900 medium (Life Technologies, Paisley, UK). The cells were cultured at 28° C. for 48-72 hours, after which they were pelleted for 5-10 min at 1000 g and 4° C.
The SF21 insect cells were resuspended, at a concentration of approx. 10^7 cells/ml, in ice-cold (4° C.) homogenization buffer (20 mM Tris, pH 8.2, containing the following additions: 140 mM NaCl, 3.8 mM KCl, 1 mM EGTA, 1 mM MgCl2, 10 mM p-mercaptoethanol, 2 mM benzamidine, 0.4 mM Pefablock, 10 μM leupeptin, 10 μM pepstatin A, 5 μM trypsin inhibitor) and disrupted by ultrasonication. The homogenate was then centrifuged for 10 min at 1000×g and the supernatant was stored at 80° C. until subsequent use (see below). The protein content was determined by the Bradford method (BioRad, Munich) using BSA as the standard.
PDE4B2 activity was inhibited by the said compounds in a modified SPA (scintillation proximity assay) test, supplied by Amersham Biosciences (see procedural instructions “phosphodiesterase [3H]cAMP SPA enzyme assay, code TRKQ 7090”), carried out in 96-well microtitre plates (MTP's). The test volume is 100 μl and contains 20 mM Tris buffer (pH 7.4), 0.1 mg of BSA (bovine serum albumin)/ml, 5 mM Mg^2+, 0.5 μM cAMP (including about 50,000 cpm of [3H]cAMP), 1 μl of the respective substance dilution in DMSO and sufficient recombinant PDE (1000×g supernatant, see above) to ensure that 10-20% of the cAMP is converted under the said experimental conditions. […] After a preincubation of 5 min at 37° C., the reaction is started by adding the substrate (cAMP) and the assays are incubated for a further 15 min; after that, they are stopped by adding SPA beads (50 μl). In accordance with the manufacturer's instructions, the SPA beads had previously been resuspended in water, but were then diluted 1:3 (v/v) in water; the diluted solution also contains 3 mM IBMX to ensure a complete PDE activity stop. After the beads have been sedimented (>30 min), the MTP's are analyzed in commercially available […] detection devices. The corresponding IC50 values of the compounds for the inhibition of PDE activities are determined from the concentration-effect curves by means of non-linear regression.
The inhibitory values determined for the compounds according to the invention follow from the following Table 1, in which the numbers of the compounds correspond to the numbers of the examples.
In the case of `CCOc1cc2c(cc1OC)C(c1ccc(C(=O)N3CCN(C)CC3)cc1)=N[C@@H]1CCOC[C@H]21` [Compound 6, 1-[4-((4aR,10aR)-6-Ethoxy-7-methoxy-1,4,4a,10a-tetrahydro-2H-3oxa-10-aza-phenanthren-9-yl)-phenyl-]1-(4-methyl-piperazin-1-yl)-methanone], the IC50 is 20.4 nM.
Then `CCOc1cc2c(cc1OC)C(c1ccc(C(=O)N(C(C)C)C(C)C)cc1)=N[C@@H]1CCOC[C@H]21` [Compound 1, 4-((4aR,10aR)-6-Ethoxy-7-methoxy-1,4,4a,10a-tetrahydro-2H-3-oxa-10-aza-phenanthren-9-yl)-N,N-diisopropyl-benzamide], with 2.75 nM; and `CCOc1cc2c(cc1OC)C(c1ccc(C(=O)N3CCOCC3)cc1)=N[C@@H]1CCOC[C@H]21` [Compound 4, 1-[4((4aR,10aR)-6-Ethoxy-7-methoxy-1,4,4a,10a-tetrahydro-2H-3oxa-10-aza-phenanthren-9-yl)-phenyl]-1-morpholin-4-yl-methanone], with 39.8 nM.
On to `CCOc1cc2c(cc1OC)C(c1ccc(C(=O)N(C)C)cc1)=N[C@@H]1CCOC[C@H]21` [Compound 5, 1-[4-((4aR,10aR)-6-Ethoxy-7-methoxy-1,4,4a,10a-tetrahydro-2H-3-oxa-10-aza-phenanthren-9-yl)]-N,N-dimethyl-benzamide], for which the IC50 was 57.5 nM.
As to `CCOc1cc2c(cc1OC)C(c1ccc(C(=O)O)cc1)=N[C@@H]1CCOC[C@H]21` [Compound 3, 4-((4aR,10aR)-6-Ethoxy-7-methoxy-1,4,4a,10a-tetrahydro-2H-3-oxa-10-aza-phenanthren-9-yl)-benzoic acid], the IC50 was 33.9 nM.
Then `CCOc1cc2c(cc1OC)C(c1ccc(C(=O)OC)cc1)=N[C@@H]1CCOC[C@H]21` [Compound 2, 4-((4aR,10aR)-6-Ethoxy-7-methoxy-1,4,4a,10a-tetrahydro-2H-3-oxa-10-aza-phenanthren-9-yl)-benzoic acid methyl ester], with 20 nM.
